The source of these data is patent US9926317B2, “Inhibitors of the renal outer medullary potassium channel” (Merck Sharp & Dohme Corp., priority 2014, dated 2018).

Structures are written as SMILES.

The assay concerns the target T1, ROMK (Kir1.1) channel (Homo sapiens, UniProt P48048).
T1 sequence (P48048 1-391): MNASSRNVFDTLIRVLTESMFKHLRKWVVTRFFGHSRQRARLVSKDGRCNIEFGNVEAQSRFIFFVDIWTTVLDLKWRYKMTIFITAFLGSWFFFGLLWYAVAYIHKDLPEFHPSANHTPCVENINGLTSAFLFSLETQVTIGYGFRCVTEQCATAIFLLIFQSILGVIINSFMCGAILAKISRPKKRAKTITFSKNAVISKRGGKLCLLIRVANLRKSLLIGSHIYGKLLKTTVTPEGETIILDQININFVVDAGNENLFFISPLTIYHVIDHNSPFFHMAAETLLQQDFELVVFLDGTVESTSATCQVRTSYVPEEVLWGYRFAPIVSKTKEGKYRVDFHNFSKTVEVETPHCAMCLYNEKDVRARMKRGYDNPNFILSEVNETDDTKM
The experiment in a line: Thallium Flux Assay. The assay is classed as cell-based. An excerpt: The compounds of Formula I according to the invention are inhibitors of ROMK, and therefore could be used as diuretic and/or natriuretic agents. ROMK inhibitors may be used to help to increase urination and increase urine volume and also to prevent or reduce reabsorption of sodium in the kidneys leading to increased excretion of sodium and water. Therefore, the compounds could be used for treatment or prophylaxis or both of disorders that benefit from increased excretion of water and sodium from the body. Accordingly, the compounds of this invention could be used in a method for inhibiting ROMK comprising administering a compound of Formula I in a ROMK-inhibitory effective amount to a patient in need thereof. This also encompasses the use of the compounds for inhibiting ROMK in a patient comprising administering a compound of claim 1 in a therapeutically effective amount to a patient in need of diueresis, natriuresis or both. […] Moreover, this invention also relates to the use of the compounds of Formula I or salts thereof to validate in vitro assays, for example but not limited to the Thallium Flux Assay described herein.
The following Thallium Flux Assay was performed on each of the final product compounds in the Examples.
A Thallium Flux Assay was performed on the compounds of the Examples. This assay has been described previously; see, e.g., PCT Published Application WO 2013/062900.
In turn, `CC1=C(N2CCC3(CCN(CC(O)c4ccc(-n5cnnc5)nc4)CC3)C2=O)COC1=O` (racemic) [Example 3, 8-(2-(6-(4H-1,2,4-triazol-4-yl)pyridin-3-yl)-2-hydroxyethyl)-2-(4-methyl-5-oxo-2,5-dihydrofuran-3-yl)-2,8-diazaspiro[4.5]decan-1-one] had an IC50 of 248 nM.
`C[C@H]1CC2(CCN(C[C@H](O)c3ccc(-n4ncnn4)cc3)CC2)C(=O)N1C1=CC(=O)OC1` [Example 6, (S)-8-((R)-2-(4-(2H-tetrazol-2-yl)phenyl)-2-hydroxyethyl)-3-methyl-2-(5-oxo-2,5-dihydrofuran-3-yl)-2,8-diazaspiro[4.5]decan-1-one] had an IC50 of 5 nM.
Compound `CC1=C(N2CCC3(CCN(CC(O)c4ccc(-n5cnnc5)cc4)CC3)C2=O)COC1=O` (racemic) [Example 2, 8-(2-(4-(4H-1,2,4-triazol-4-yl)phenyl)-2-hydroxyethyl)-2-(4-methyl-5-oxo-2,5-dihydrofuran-3-yl)-2,8-diazaspiro[4.5]decan-1-one] came in with an IC50 of 176 nM. This IC50 lies about 35-fold higher than the previous one.
The same measure for `CC1=C(N2CCC3(CCN(C[C@@H](O)c4ccc(-n5ncnn5)cc4)CC3)C2=O)COC1=O` [Example 4, (S)-8-(2-(4-(2H-tetrazol-2-yl)phenyl)-2-hydroxyethyl)-2-(4-methyl-5-oxo-2,5-dihydrofuran-3-yl)-2,8-diazaspiro[4.5]decan-1-one]: 7 nM.
Compound `C[C@H]1CC2(CCN(C[C@@H](O)c3ccc(-n4ncnn4)cc3)CC2)C(=O)N1C1=CC(=O)OC1` [Example 5, (S)-8-((S)-2-(4-(2H-tetrazol-2-yl)phenyl)-2-hydroxyethyl)-3-methyl-2-(5-oxo-2,5-dihydrofuran-3-yl)-2,8-diazaspiro[4.5]decan-1-one] registered an IC50 of 3 nM.
`CC1=C(N2CCC3(CCN(C[C@H](O)c4ccc(-n5ncnn5)cc4)CC3)C2=O)COC1=O` [Example 1, (R)-8-(2-(4-(2H-tetrazol-2-yl)phenyl)-2-hydroxyethyl)-2-(4-methyl-5-oxo-2,5-dihydrofuran-3-yl)-2,8-diazaspiro[4.5]decan-1-one] had an IC50 of 7 nM.

Usually IC50 stands for the concentration that gives 50% inhibition.
